Source: patent US20240299553A1, “INDOCARBOCYANINE LIPID DERIVATIVES FOR IN VIVO CARGO DELIVERY” (priority 2021, published 2024)

Columns and labels:
[1] = tested on: 4T1 tumor cells and F4/80+ tumor-associated macrophages; experiment: Flow cytometry of 4T1 tumor single-cell suspension after i.v. labeled liposomes; assay type: in vivo, mice; details: 72 h after a single i.v. injection; liposomes labeled with 0.2% dye
Procedure: 4T1 cell line was purchased from the ATCC and verified using a sequencing core. GL261 cells were obtained from the National Cancer Institute (NCI), and CT2A cells were a gift from Dr. Tom Seyfried (Boston College). LY2 cells were from Dr. Sana Karam, University of Colorado Anschutz Medical campus. Cells were grown at 37° C. in RPMI 1640 medium containing 10% heat-inactivated fetal bovine serum, 10 mM HEPES, 100 U/ml penicillin, and […] streptomycin (all from Corning Inc. New York, NY, USA). BALB/c mice were bred in-house. Mice of 8-10 weeks of age (females) were implanted with 0.5×10^6 cells into the mammary fat pad (4T1) or subcutaneously in the jaw region (LY2) and used for experiments 1 week later when tumors reached ˜200-300 mm^3. For brain tumors, C57BL/6 mice (6-8 weeks old) were implanted with a total 1×10^5 GL261 or CT-2A cells per animal using an established protocol. […]
A single-cell suspension of tumor tissue was prepared for flow cytometry analysis, as previously described. […] After incubation on ice for 20 minutes and washing, cells were analyzed for staining using the Guava EasyCyte HT flow cytometer (Merck KGaA). Cells were resuspended at ˜0.5 million/ml, and 20,000 events were detected. Dead cells and fragments were excluded with FSC/SSC dot plot, and the percentage of Cy5+ cells was analyzed with FlowJo software Version 10.6 (FlowJo, LLC). […]

[2] = Ex vivo fluorescence imaging of excised tumors and livers; assay type: in vivo, mice
Procedure: Tumors and livers were placed in a 24-well plate and scanned as described above. To match the intensity of the channels, the same liposomes used for injection were diluted (1:10), dotted on a 0.45 μm nitrocellulose membrane, and scanned together with the samples. Mean fluorescence was determined from 8-bit TIFF images using Fiji software by drawing a region of interest around the tumors and using the “Measure” function to determine mean gray values. Such measurement is independent of the organ cross-section area. The mean gray values of non-injected tumors were subtracted from the measurements. For plasma fluorescence profile, plasma collected at different time points was serially diluted, dotted on a nitrocellulose membrane, scanned as above, and the mean fluorescence of dots was plotted versus time with Prism.

[3] = Incubation of liposomes in liver homogenates, fluorescence ratio and TLC; assay type: in vitro ADME, BALB/c mice; details: 24 h and 48 h incubation
Procedure: Liposomes were incubated at 2 mM in 80% mouse serum, PBS or 1% Tween/PBS for different times at 37° C. Following incubation, the samples were dotted on a nitrocellulose membrane and scanned at Cy3 and Cy5 wavelengths. Alternatively, to measure the release in serum, the samples were diluted after incubation 10-fold in PBS and ultracentrifuged at 80,000 rpm for 30 min, 4° C. using TLA-100.3 rotor of Beckman Optima ultracentrifuge. The supernatant in serum, liposomes in whole serum, and liposomes in PBS were dotted and scanned at Cy3 and Cy5 wavelengths with a Bio-Rad camera imager using Cy3 and Cy5 filters. The mean fluorescence of the dots was determined and used to calculate the percentage of release in serum. To measure the effect of tissue on DiI/Cy5 fluorescence ratio, livers from BALB/c mice were homogenized for 5 min in PBS (1:2 weight: volume ratio) using BioSpec Mini BeadBeater-16 tissue homogenizer with 1-2 zirconium beads added per tube. […]
For extraction using a modified Bligh-Dyer method, 50-100 mg tissue was homogenized as described above, 10 parts of chloroform/methanol (2:1) were added to the homogenate (considering that tissue weight is 1 part), and the samples were mixed at 1400 rpm for 2 h at room temperature on Eppendorf Thermomixer. […] The percentage of the injected DiI and Cy5 in the extract was calculated from the standard curve and divided by tissue weight. […]

[4] = TLC of liver extracts of mice injected with liposomes; assay type: in vivo; details: 24 h and 48 h post-injection of DiI/Cy5-DSPE liposomes
Procedure: For extraction using a modified Bligh-Dyer method, 50-100 mg tissue was homogenized as described above, 10 parts of chloroform/methanol (2:1) were added to the homogenate (considering that tissue weight is 1 part), and the samples were mixed at 1400 rpm for 2 h at room temperature on Eppendorf Thermomixer. The tubes were centrifuged at 500 g for 10 min. The organic phase (bottom, approximately 80% of the added amount) was carefully collected, dotted on a PVDF membrane and scanned for DiI and Cy5 fluorescence as described above. Different dilutions of liposomes (standard curve) were scanned together with the samples. The percentage of the injected DiI and Cy5 in the extract was calculated from the standard curve and divided by tissue weight. The fluorescence of control non-injected organs was subtracted from that of injected organs. For TLC analysis, the mobile phase consisted of chloroform: methanol (9:1) with 1% trifluoroacetic acid and the samples were run on TLC Silica Gel 60 F254 plates (EMD Millipore).

## CCCCCCCCCCCCCCCCCC(=O)OC[C@H](COP(=O)(O)OCCNC(=O)CCCCCN1C(=CC=CC=CC2=[N+](C)c3ccccc3C2(C)C)C(C)(C)c2ccccc21)OC(=O)CCCCCCCCCCCCCCCCC [Cy5-DSPE]
[1]
  accumulation in cells in the tumor: minimal accumulation
[2]; livers, later time points versus 1 h
  fluorescence in liver images over time: decrease
[2]; tumors, 1 h, 24 h, 48 h post-injection
  fluorescence in tumor images over time: plateaued at 24 h and dropped at 48 h
[3]
  TLC of extracts of liver homogenates: appearance of degradation products
[4]
  TLC of liver extracts of injected mice: degradation and disappearance
